These results are taken from patent publication US20220241249A1, “PHARMACEUTICAL COMPOSITION AND KIT CONTAINING NOVEL PENAM DERIVATIVE OR SALT THEREOF AND ONE OR MORE COMPOUNDS SELECTED FROM beta-LACTAMASE INHIBITORY COMPOUND AND ANTIBACTERIAL COMPOUND OR SALTS THEREOF” (priority 2019, published 2022).

≈ marks a conversion by molar mass, not a printed value.

What is called MIC is the lowest concentration that inhibits growth of the organism.

Holding throughout (experiment): Antibacterial activity evaluation test, MIC by broth microdilution (CLSI)
Common to all, as to format: cell-based

For assay [1], the system named is AmpC-derepressed Pseudomonas aeruginosa mutant strain (S-3028). Conditions: for MIC: Pseudomonas aeruginosa. On the procedure: (§1) The minimum inhibitory concentration (MIC) was measured according to the Clinical and Laboratory Standards Institute (CLSI) standard method by using the following broth microdilution method.
(§2) As bacteria, a Pseudomonas aeruginosa strain ATCC27853, an AmpC-derepressed Pseudomonas aeruginosa mutant strain (S-3028), an IMP-1-containing Pseudomonas aeruginosa strain (S-2838), a VIM-2-containing Pseudomonas aeruginosa strain (S-3779), a GES-19 and GES-20-containing Pseudomonas aeruginosa strain (S-3759), a CTX-M-15-containing Escherichia coli strain (TK-1747), a KPC-2-containing Klebsiella pneumoniae strain (Y-995), an OXA-48-containing Klebsiella pneumoniae strain (Y-1062), and an NDM-1-containing Klebsiella pneumoniae strain (Y-1007) were used. The test bacterial cells that had been cultured overnight on a Mueller Hinton agar medium were scraped off, suspended at a density equivalent to 0.5 McFarland standard, and diluted 10-fold, thereby obtaining an inoculum. A cation-adjusted Mueller Hinton medium containing a test compound was inoculated with 0.005 mL of the inoculum, and the cells were cultured at 35° C. for 16 to 20 hours. The minimum drug concentration at which the growth of bacteria was not visually observed was defined as MIC (μg/mL).
(§3) An antibacterial activity evaluation test was performed in the same manner as in Test Example 1.

Assay [2] relates to Pseudomonas aeruginosa strain ATCC27853. The conditions noted are these: Pseudomonas aeruginosa, ATCC27853. As for the experimental part:
as §1, §2, §3

For assay [3], the system named is KPC-2-containing Klebsiella pneumoniae strain (Y-995). Conditions: for MIC: Klebsiella pneumoniae. On the procedure:
as §1, §2, §3

Assay [4] has as its system CTX-M-15-containing Escherichia coli strain (TK-1747). The conditions noted are these: for MIC: Escherichia coli. On the procedure:
as §1, §2, §3

The test system of assay [5] is NDM-1-containing Klebsiella pneumoniae strain (Y-1007). The conditions noted are these: for MIC: Klebsiella pneumoniae. On the procedure:
as §1, §2, §3

Assay [6] concerns VIM-2-containing Pseudomonas aeruginosa strain (S-3779). Conditions: for MIC: Pseudomonas aeruginosa. On the procedure: as §1, §2, §3
For assay [7], the system named is OXA-48-containing Klebsiella pneumoniae strain (Y-1062). The conditions noted are these: for MIC: Klebsiella pneumoniae. As for the experimental part:
as §1, §2, §3

Assay [8] has as its system IMP-1-containing Pseudomonas aeruginosa strain (S-2838). Conditions: for MIC: Pseudomonas aeruginosa. On the procedure: as §1, §2, §3
Assay [9] has as its system GES-19 and GES-20-containing Pseudomonas aeruginosa strain (S-3759). The conditions noted are these: for MIC: Pseudomonas aeruginosa. On the procedure: as §1, §2, §3

Take `CC(C)(O/N=C(\C(=O)N[C@@H]1C(=O)N2C[C@@](C(=O)O)(N3CCN(NC(=O)CCNC(=O)C(=O)c4ccc(O)c(O)c4Cl)C3=O)S[C@H]12)c1csc(N)n1)C(=O)O` [Example 30, (3R,5R,6R)-6-((Z)-2-(2-aminothiazol-4-yl)-2-(((2-carboxypropan-2-yl)oxy)imino)acetamido)-3-(3-(3-(2-(2-chloro-3,4-dihydroxyphenyl)-2-oxoacetamido)propanamido)-2-oxoimidazolidin-1-yl)-7-oxo-4-thia-1-azabicyclo[3.2.0]heptane-3-carboxylic acid]: the MIC in [1] is under 0.06 µg/mL; in [2] it was 0.25 µg/mL (≈ 0.308 µM); in assay [3], 0.25 µg/mL (≈ 0.308 µM); in [4], 0.25 µg/mL (≈ 0.308 µM); in assay [5], under 0.06 µg/mL; in assay [6], 0.5 µg/mL (≈ 0.616 µM). Besides, the minimal inhibitory concentration (MIC) in [7], in assay [8] and in assay [9] was 0.5 µg/mL (≈ 0.616 µM) each time.

In turn, `CC(C)(O/N=C(\C(=O)N[C@@H]1C(=O)N2C[C@@](C(=O)O)(N3CCN(NC(=O)c4c[nH]c5cc(O)c(O)cc5c4=O)C3=O)S[C@H]12)c1csc(N)n1)C(=O)O` [Example 154, (3R,5R,6R)-6-((Z)-2-(2-aminothiazol-4-yl)-2-(((2-carboxypropan-2-yl)oxy)imino)acetamido)-3-(3-(6,7-dihydroxy-4-oxo-1,4-dihydroquinoline-3-carboxamido)-2-oxoimidazolidin-1-yl)-7-oxo-4-thia-1-azabicyclo[3.2.0]heptane-3-carboxylic acid] gave an Antibacterial activity (MIC) Pseudomonas aeruginosa S-3028 in [1] (Pseudomonas aeruginosa S-3028) of 0.5 µg/mL. Further, the Antibacterial activity (MIC) Pseudomonas aeruginosa ATCC 27853 in [2] was determined as 2 µg/mL. For the same compound, the Antibacterial activity (MIC) Klebsiella pneumoniae Y-995 in assay [3] (Klebsiella pneumoniae Y-995) worked out at 0.25 µg/mL. Moreover, the Antibacterial activity (MIC) Escherichia coli TK-1747 in [4] (Escherichia coli TK-1747) is 0.5 µg/mL. The compound also yielded an Antibacterial activity (MIC) Klebsiella pneumoniae Y-1007 in assay [5] (Klebsiella pneumoniae Y-1007) of 0.25 µg/mL. Also, in [6] (Pseudomonas aeruginosa S-3779), the Antibacterial activity (MIC) Pseudomonas aeruginosa S-3779 is 2 µg/mL. Besides, in assay [7] (Klebsiella pneumoniae Y-1062), the Antibacterial activity (MIC) Klebsiella pneumoniae Y-1062 worked out at 2 µg/mL. The compound also showed an Antibacterial activity (MIC) Pseudomonas aeruginosa S-2838 in [8] (Pseudomonas aeruginosa S-2838) of 4 µg/mL. For the same compound, the Antibacterial activity (MIC) Pseudomonas aeruginosa S-3759 in assay [9] (Pseudomonas aeruginosa S-3759) was 4 µg/mL.

Consider `CC(C)(O/N=C(\C(=O)N[C@@H]1C(=O)N2C[C@@](C(=O)O)(N3CCN(/N=C/C=N/NC(=O)NCCNC(=O)c4ccc(O)c(O)c4Cl)C3=O)S[C@H]12)c1csc(N)n1)C(=O)O` [Example 53, (3R,5R,6R)-6-((Z)-2-(2-aminothiazol-4-yl)-2-(((2-carboxypropan-2-yl)oxy)imino)acetamido)-3-(3-(((1E,2E)-2-(2-((2-(2-chloro-3,4-dihydroxybenzamido)ethyl)carbamoyl)hydrazono)ethylidene)amino)-2-oxoimidazolidin-1-yl)-7-oxo-4-thia-1-azabicyclo[3.2.0]heptane-3-carboxylic acid], for which the MIC in assay [1] was 1 µg/mL (≈ 1.17 µM); in assay [2], 0.5 µg/mL (≈ 0.586 µM); in assay [3], 2 µg/mL (≈ 2.34 µM); in [4] it was 2 µg/mL (≈ 2.34 µM); in [5], 0.12 µg/mL (≈ 0.141 µM); in assay [6] it was 0.5 µg/mL (≈ 0.586 µM). Also, the minimal inhibitory concentration (MIC) in assay [7] is 0.5 µg/mL (≈ 0.586 µM); in [8] it was 4 µg/mL (≈ 4.69 µM); in assay [9], 2 µg/mL (≈ 2.34 µM).

As for `CC(C)(O/N=C(\C(=O)N[C@@H]1C(=O)N2C[C@@](C(=O)O)(N3CCN(NC(=O)C(=O)c4ccc(O)c(O)c4Cl)C3=O)S[C@H]12)c1nc(N)sc1Cl)C(=O)O` [Example 22, (3R,5R,6R)-6-((Z)-2-(2-amino-5-chlorothiazol-4-yl)-2-(((2-carboxypropan-2-yl)oxy)imino)acetamido)-3-(3-(2-(2-chloro-3,4-dihydroxyphenyl)-2-oxoacetamido)-2-oxoimidazolidin-1-yl)-7-oxo-4-thia-1-azabicyclo[3.2.0]heptane-3-carboxylic acid], the MIC was 0.5 µg/mL (≈ 0.645 µM) in assay [1]; 0.5 µg/mL (≈ 0.645 µM) in assay [2]; 0.06 µg/mL (≈ 0.0774 µM) in assay [3]; under 0.06 µg/mL in [4]; under 0.06 µg/mL in [5]; 0.25 µg/mL (≈ 0.322 µM) in assay [6]. In addition, the results for the minimal inhibitory concentration (MIC) in assay [7], in assay [8] and in [9] were 0.06 µg/mL (≈ 0.0774 µM), 0.5 µg/mL (≈ 0.645 µM) and 0.5 µg/mL (≈ 0.645 µM), respectively.

As for `CCC[C@H](O/N=C(\C(=O)NC1C(=O)N2C[C@@](C(=O)O)(N3CCN(NC(=O)C(=O)c4ccc(O)c(O)c4Cl)C3=O)S[C@H]12)c1csc(N)n1)C(=O)O` (stereo partly drawn) [Example 115, (3R,5R,6R)-6-((Z)-2-(2-aminothiazol-4-yl)-2-(((S)-1-carboxy-butoxy)imino)aceta-mido)-3-(3-(2-(2-chloro-3,4-dihydroxy-phenyl)-2-oxoaceta-mido)-2-oxoimidazol-idin-1-yl)-7-oxo-4-thia-1-azabicyclo[3.2.0]-heptane-3-carboxylic acid], the MIC was 0.12 µg/mL (≈ 0.159 µM) in assay [1]; 0.5 µg/mL (≈ 0.662 µM) in [2]; 0.25 µg/mL (≈ 0.331 µM) in [3]; 0.25 µg/mL (≈ 0.331 µM) in assay [4]; under 0.06 µg/mL in assay [5]; 0.5 µg/mL (≈ 0.662 µM) in assay [6]. Also, the MIC in assay [7] was 1 µg/mL (≈ 1.32 µM); in [8], 1 µg/mL (≈ 1.32 µM); in assay [9] it was 0.5 µg/mL (≈ 0.662 µM).

For `CC(C)(O/N=C(\C(=O)N[C@@H]1C(=O)N2C[C@@](C(=O)O)(N3CCN(NC(=O)c4ccc(O)c(O)c4Cl)C3=O)S[C@H]12)c1csc(N)n1)C(=O)O` [Example 2, (3R,5R,6R)-6-((Z)-2-(2-aminothiazol-4-yl)-2-(((2-carboxypropan-2-yl)oxy)imino)acetamido)-3-(3-(2-chloro-3,4-dihydroxybenzamido)-2-oxoimidazolidin-1-yl)-7-oxo-4-thia-1-azabicyclo[3.2.0]heptane-3-carboxylic acid], the minimum inhibitory concentration (MIC) is 1 µg/mL (≈ 1.4 µM) in assay [1]; 1 µg/mL (≈ 1.4 µM) in [2]; 0.12 µg/mL (≈ 0.168 µM) in [3]; 0.25 µg/mL (≈ 0.351 µM) in assay [4]; under 0.06 µg/mL in assay [5]; 0.25 µg/mL (≈ 0.351 µM) in assay [6]. In addition, the MIC in assay [7] stood at 2 µg/mL (≈ 2.8 µM); in assay [8], 0.5 µg/mL (≈ 0.701 µM); in [9], 4 µg/mL (≈ 5.61 µM).

As to `CC(C)(O/N=C(\C(=O)N[C@@H]1C(=O)N2C[C@@](C(=O)O)(N3CCN(NC(=O)c4cc(Cl)c(O)c(O)c4Cl)C3=O)S[C@H]12)c1csc(N)n1)C(=O)O` [Example 83, (3R,5R,6R)-6-((Z)-2-(2-aminothiazol-4-yl)-2-(((2-carboxypropan-2-yl)oxy)imino)acetamido)-3-(3-(2,5-dichloro-3,4-dihydroxybenzamido)-2-oxoimidazolidin-1-yl)-7-oxo-4-thia-1-azabicyclo[3.2.0]heptane-3-carboxylic acid], the minimal inhibitory concentration (MIC) in assay [1] was 0.5 µg/mL (≈ 0.669 µM); in assay [2], 0.25 µg/mL (≈ 0.334 µM); in assay [3] it was 0.25 µg/mL (≈ 0.334 µM); in assay [4], 0.5 µg/mL (≈ 0.669 µM); in [5], under 0.06 µg/mL; in assay [6], 0.5 µg/mL (≈ 0.669 µM). The values for the MIC in assay [7], in assay [8] and in assay [9] were 2 µg/mL (≈ 2.68 µM), 0.5 µg/mL (≈ 0.669 µM) and 1 µg/mL (≈ 1.34 µM), respectively.

`CC[C@H](O/N=C(\C(=O)N[C@@H]1C(=O)N2C[C@@](C(=O)O)(N3CCN(NC(=O)C(=O)c4ccc(O)c(O)c4Cl)C3=O)S[C@H]12)c1csc(N)n1)C(=O)O` [Example 105, (3R,5R,6R)-6-((Z)-2-(2-aminothiazol-4-yl)-2-(((S)-1-carboxypropoxy)imino)acetamido)-3-(3-(2-(2-chloro-3,4-dihydroxyphenyl)-2-oxoacetamido)-2-oxoimidazolidin-1-yl)-7-oxo-4-thia-1-azabicyclo[3.2.0]heptane-3-carboxylic acid]: the MIC in assay [1] is under 0.06 µg/mL; in assay [2] it was 0.25 µg/mL (≈ 0.337 µM); in assay [3], 0.12 µg/mL (≈ 0.162 µM); in [4] it was 0.5 µg/mL (≈ 0.675 µM); in [5], under 0.06 µg/mL; in assay [6], 0.25 µg/mL (≈ 0.337 µM). In addition, the MIC in [7] stood at 0.5 µg/mL (≈ 0.675 µM); in assay [8] it was 0.25 µg/mL (≈ 0.337 µM); in [9], 0.5 µg/mL (≈ 0.675 µM).

For the compound `C[C@H]1CN(/N=C/CNC(=O)C(=O)c2ccc(O)c(O)c2Cl)C(=O)N1[C@]1(C(=O)O)CN2C(=O)C(NC(=O)/C(=N\OC(C)(C)C(=O)O)c3csc(N)n3)[C@H]2S1` (stereo partly drawn) [Example 47], the MIC in assay [1] is 0.12 µg/mL (≈ 0.151 µM); in assay [2], 0.5 µg/mL (≈ 0.628 µM); in [3], 0.5 µg/mL (≈ 0.628 µM); in [4] it was under 0.06 µg/mL; in assay [5], under 0.06 µg/mL; in [6], 1 µg/mL (≈ 1.26 µM). Moreover, the MIC amounted to 0.25 µg/mL (≈ 0.314 µM) in [7], 4 µg/mL (≈ 5.02 µM) in assay [8] and 1 µg/mL (≈ 1.26 µM) in assay [9].
